Source: PMC12606464, “Investigating NFE2L1 activators for targeted protein aggregate clearance: a follow-up study” (RSC Medicinal Chemistry, 2025)

What was measured:
[1] = system: EGFP-HttQ74 aggregates in U2OS cells; assay: Analysis of polyQ (EGFP-HttQ74) aggregation in U2OS cells; format: cell-based; conditions: U2OS EGFP-HttQ74, 5 μM, 24 h, with BOC-D-FMK
Description: Considering these earlier findings, we assessed the impact of the most promising compound, RUN-89, on protein aggregate formation in cells. U2OS cells were transfected with the EGFP-HttQ74 plasmid, a model for polyglutamine (polyQ) aggregation, and then treated with the caspase inhibitor BOC-D-FMK in combination with either 5 μM RUN compounds or a vehicle control for 24 hours prior to the microscopy analysis (Fig. 4). […] A decrease in aggregate size leads to an increase in their number, as the formation of large aggregates is prevented. Instead, multiple smaller aggregates are formed, which, according to our assumption, could be more easily degraded (Fig. 4B). […] Representative fluorescence microscopy images of U2OS cells expressing EGFP-HttQ74 treated with RUN-89 are shown in Fig. 4D, highlighting the difference between RUN-89-treated and vehicle-treated cells.
U2OS cells expressing EGFP-HttQ74 were treated for 24 hours with either the caspase inhibitor BOC-D-FMK, 5 μM RUN compounds, or DMSO (negative control). In total, cells from three independent experiments were analyzed (n = 3) and from every well 10 areas were screened. […] The volume value was measured in voxels. […] (D) Fluorescence microscopy images represent U2OS cells overexpressing EGFP-HttQ74 after treatment with RUN-89 and DMSO for 24 h. […]
instructions. […] Data were expressed as a fold change relative to the corresponding DMSO control. […]

SH-SY5Y cells = assay: Rotenone-induced α-synuclein proteotoxicity in SH-SY5Y cells; format: cell-based, human; conditions: SH-SY5Y expressing α-synuclein-GFP; pre-treatment 4 h (0.312-2.5 μM), rotenone 1.125 μM 24 h; approximately 30% without compounds
Description: Fig. 3 (A) HEK293 cells were treated with RUN compounds at a concentration of 7.5 μM for 16 hours. DMSO was used as a vehicle control. Proteasome chymotrypsin-like activity was measured in cell lysates at 37 °C. Data came from three biological replicates (n = 3). Statistical analysis was done using ratio paired t-tests corrected for multiple comparisons with Holm–Šídák's method (α = 0.05). *p < 0.05. Detailed results of the analysis are shown in SI Table S7. (B) RUN-89 protects against polyQ-mediated toxicity in an NFE2L1-dependent manner. HCT116 parental cells (WT) and two independent DDI2 knockout clones (KO 04 and KO 11), in which NFE2L1 activation is impaired, were transiently transfected with plasmids encoding non-aggregating EGFP-HttQ23 or aggregation-prone EGFP-HttQ74. Cells were treated with 1 or 3 μM RUN-89 for 48 hours, and viability was measured using the alamarBlue assay. […] Data are shown as the Geomean ± GeoSD from four independent biological replicates (n = 4). […] (C left) The protective effect of RUN compounds was assessed by rotenone-induced α-synuclein proteotoxicity in SH-SY5Y cells, which mimics the PD-like phenotype. […]
A second stress assay was performed using rotenone, a mitochondrial complex I inhibitor. […] After 4 hours, rotenone (1.125 μM) was added and one day later the viability of the cells was measured. […]

## COc1ccc(/C=C2\CC(NC(=O)C3CCCC3)C/C(=C\c3ccc(OC)c(OC)c3)C2=O)cc1OC (centres unmarked) [RUN-89]
[1]
  Number of aggregates per cell: 4.545
SH-SY5Y cells
  Cell viability after rotenone treatment: up to 70%
